Laboratory results taken from patent publication US9486502B2, “Methods of administering interferon gamma to absorb fluid from the subretinal space” (The United States of America, as represented by the …, priority 2008, dated 2016).

Key:
hfRPE cells [1] = experiment: BrdU incorporation assay, hfRPE proliferation; format: cell-based, human; details: for effect on hfRPE proliferation (BrdU incorporation): 0.5-80 ng/ml; for effect on the IFNγ effect on hfRPE proliferation: added one hour prior to IFNγ
Experimental: BrdU incorporation was performed as described in Li, R. et al., 2007, Invest Ophthalmol Vis Sci, 48, 5722-5732, incorporated by reference in its entirety herein. IFNγ, TNFα, and IL-1β were obtained from Peprotech, Rocky Hill, N.J., and Universal Type I Interferon (cat: 11200-1) or human interferon beta la were from PBL biomedical laboratories (New Brunswick, N.J.). Cumulative effects were measured by adding VEGF165, EGF and bFGF (Peprotech), and PDGF-BB (R & D Systems) with IFNγ. Anti-human IFNγ R1 blocking antibody (R & D Systems, Minneapolis, Minn.), JAK inhibitor I, AG490, or JAK3 inhibitor II (EMD Biosciences, Gibbstown, N.J.) was added to the cells one hour prior to the addition of IFNγ. SFM was used as the negative control and SFM supplemented with 5% serum was used as positive control. After treatment for 48 hours, RPE cells were incubated with BrdU for 24 hours. The proliferation rate was evaluated using a Cell proliferation ELISA BrdU Kit (Roche, Ind.). Quadruplicate wells were used for each condition and the experiments were repeated at least two times using cell cultures from different donors. Cell viability was evaluated using a Live/Dead Viability/Cytotoxicity Kit (Invitrogen).

hfCHC cells = experiment: BrdU incorporation assay, human fetal choroidal cell proliferation; format: cell-based
hfRPE cells [2] = experiment: wound healing assay, hfRPE migration; format: cell-based, human; details: 48 hours, proliferation suppressed with mitomycin C
Experimental: The wound healing assay was used to study the effects of inflammatory cytokines on hfRPE cell migration, as described previously in Li, R., et al. Invest Ophthalmol Vis Sci, 2007, 48, 5722-5732, incorporated herein by reference in its entirety. Cell proliferation was suppressed by incubation with 10 μg/ml mitomycin C (Sigma) for 2 hours before all migration experiments. A circular denuded area (7 mm in diameter) was made in each well using a custom designed cell scraper. After incubation with various inflammatory cytokines for 48 hours, cells were fixed with cold methanol and stained with ethidium homodimer-1 (EthD-1, Invitrogen) according to the manufacturer's instructions. Cell migration was quantified by counting the average number of cells that migrated into the denuded area in 16 microscope fields surrounding the circumference of the denuded area. Each condition was tested in triplicate and repeated using cells from different donors.

hfRPE monolayers = experiment: fluid transport (JV, TEP, RT) across hfRPE monolayers in modified Üssing chamber; format: cell-based, human; details: for effect on the effects of IFNγ on JV: Rp-8-Br-cAMPS 2 μM pretreatment
Excerpt: Confluent monolayers of hfRPE cultured on transwells were mounted in a modified Üssing chamber and transepithelial water flow measurements (JV) were made with a capacitance probe technique as described previously in Maminishkis, A., et al., Invest Ophthalmol Vis Sci, 2006, 47, 3612-3624; Shi, G., et al., Invest Ophthalmol Vis Sci, 2008, 49, 4620-4630; Edelman, J. L., et al., Invest Ophthalmol Vis Sci, 1991, 32, 3033-3040; Jiang, C., et al., Science, 1993, 262, 424-427; and Maminishkis, A., et al., Invest Ophthalmol Vis Sci, 2002, 43, 3555-3566, each incorporated herein by reference in its entirety.
Tissue viability was ascertained by recording transepithelial potential (TEP) and total tissue resistance (RT). It should be noted that the solution composition changes in this chamber were relatively slow (≈1-2 chamber volumes per minute) and the data sampling rate was once per minute, more than two orders of magnitude slower than the sampling rate in the electrophysiology chamber (see below). Therefore it was not possible to record fast changes, in seconds or minutes, in JV, TEP, or RT. After addition of IFNγ to the apical or basal baths, steady-state JV, TEP, and RT were recorded for 20-30 minutes. In control experiments, successive additions of IFNγ were made to test for the repeatability and reversibility of responses. To block IFNγ effects, RPE cells were incubated for 30-60 minutes with a blocking antibody against IFNγ R1, JAK inhibitor I, PKA inhibitors (H-89, EMD Biosciences; RP-8-Br-cAMPS, Sigma-Aldrich), nitric oxide synthase inhibitor (aminoguanidine hydrochloride, Sigma-Aldrich), P38 MAPK inhibitors (SB203580 or SB20290), or CHX. Other components of this signaling pathway were studied using P38 MAPK inhibitors (SB203580 and SB202190). Relatively specific Cl channel inhibitors, CFTRinh-172 or DIDS (EMD Biosciences, La Jolla, Calif.), were used to block cAMP or Ca^2+-activated Cl channels; experiments with CFTRinh-172 were performed as described in Muanprasat, C., et al., J Gen Physiol, 2004, 124, 125-137, incorporated herein by reference in its entirety. In chronic experiments, paired hfRPE tissues with matched RT values were incubated for 4-24 hours with IFNγ or CHX. The subsequent changes in JV, RT, and TEP were measured in Ringer's solution or serum free cell culture media as previously described in Shi, G., et al., Invest Ophthalmol Vis Sci, 2008 and Maminishkis, A., et al., Invest Ophthalmol Vis Sci, 2006, 47, 3612-3624, each incorporated herein by reference in its entirety. Intracellular levels of NO were elevated with 1-Hydroxy-2-oxo-3-(3-aminopropyl)-3-isopropyl-1-triazene (NOC-5, Enzo Life Sciences, Plymouth, Pa.). 8-Br-cGMP was purchased from Sigma-Aldrich.

rat RPE = experiment: in vivo retinal re-attachment assay (OCT)
Experimental: All animal experiments were conducted in compliance with the ARVO Statement for the use of Animals in Ophthalmic and Vision Research, and the protocol was approved by the Animal Care and Use Committee of the National Institutes of Health. The procedures have been described in detail in Maminishkis, A., et al., Invest Ophthalmol Vis Sci, 2006, 47, 3612-3624, incorporated by reference in its entirety herein. Briefly, retinal detachments were created in long-Evans rats by injecting 0.5 to 3 μl of modified phosphate-buffered saline (MPBS) Ringer's solution into the sub-retinal space (SRS), which separates the photoreceptor outer segments and the apical membrane of the RPE. In the control portion of each experiment (at 0-70 minutes after creation of the retinal detachment), the rate of change of bleb volume was measured. The control period of “constant” volume was defined by JV≦2 μl hr cm over at least 40 minutes. Any control injections that exceeded this threshold rate were rejected from subsequent analysis.
IFNγ was dissolved in MPBS, mixed with Celluvisc® solution (1:1) and applied as eye-drops (0.4 mL). Optical coherence tomography (OCT) imaging (Institute of Applied Physics, Russian Academy of Science, Nizhniy Novgorod, Russia) was used to measure the time course of the detachment volume change.
A previously tested in vivo rodent model of retinal detachment was used to measure the effect of IFNγ on re-absorption following retinal detachment, as described in Example 11 and in Maminishkis, A., et al., Invest Ophthalmol Vis Sci, 2002, 43, 3555-3566, incorporated herein by reference in its entirety. Initial detachment was created by injecting approximately 1 μl of osmotically-balanced, modified phosphate-buffered saline (MPBS) Ringer's solution into the extracellular space, i.e. the sub-retinal space (SRS). After stabilization of the detachment, IFNγ (40 μl of 100 ng/ml) was added to the anterior surface of the eye via eye drops (Celluvisc®). A series of 3D OCT images were recorded at different time points.

[3] = multiple instillations per day for months; literature; cited from earlier work
[4] = Phase I study of topical interferon gamma-1b in CME secondary to uveitis (OCT macular thickness); format: in vivo, human; details: patients with CME secondary to uveitis, topical instillation(s), OCT post-instillation
Excerpt: To test whether cystoid macular edema (CME), secondary to uveitis, is caused by the disequilibrium of the Jak/Stat and mTor signal transduction pathways in the retinal pigment epithelium (RPE), interferon gamma-1β topically applied in human patients. Five participants with CME secondary to uveitis receive a topical ocular instillation of interferon gamma-1b in a Phase I, non-randomized, prospective, uncontrolled, dose-escalation, single-center study. The study involves a one-time instillation or series of instillations of interferon gamma-1b on the cornea and measurement of a response with optical coherence tomography (OCT) over a three hour period.
A 25% decrease in macular thickness is observed at a post-instillation as compared to baseline. In the study, the first two participants receive one instillation (each instillation contains […] in 0.05 mL solution) on the cornea at time zero, the next two participants receive two instillations, 10 minutes apart, for a total dosage of 20 μg, and the final participant receives three instillations, 10 minutes apart, for a total of 30 μg. OCT will be obtained at −60 minutes, −30 minutes and just before the instillation(s). […]
Participants with CME secondary to uveitis are treated with ocular instillation(s) of interferon gamma-1b. […] The effect on the retinal thickness is measured using OCT measurements as indicated below. […]

Molecule: IL-1β: inflammatory cytokine obtained from Peprotech; ICM component
- effect on hfRPE proliferation (BrdU incorporation) (hfRPE cells [1]): no significant effect
- effect on hfCHC (human fetal choroidal) cell proliferation (hfCHC cells): significantly stimulated
- effect on hfRPE cell migration (hfRPE cells [2]): no significant effect

Molecule: TNFα
- effect on hfRPE proliferation (BrdU incorporation) (hfRPE cells [1]): weak stimulatory effect
- concentration at which the stimulatory effect reached statistical significance (hfRPE cells [1]; P <0.05): 80 ng/mL
- effect on hfCHC (human fetal choroidal) cell proliferation (hfCHC cells): significantly stimulated
- effect on hfRPE cell migration (hfRPE cells [2]): no significant effect

Molecule: N#C/C(=C\c1ccc(O)c(O)c1)C(=O)NCc1ccccc1 [AG490, reference compound]
- effect on the IFNγ effect on hfRPE proliferation (hfRPE cells [1]): block

Molecule: COc1cc2ncnc(Nc3ccc(O)c(Br)c3)c2cc1OC [JAK3, reference compound]
- effect on the IFNγ effect on hfRPE proliferation (hfRPE cells [1]): not

Molecule: JAK inhibitor I
- effect on the IFNγ effect on hfRPE proliferation (hfRPE cells [1]): block
- effect on base level of fluid transport (JV) (hfRPE monolayers; JAK inhibitor I 5 μM alone): no significant effect
- effect on IFNγ increase in JV (hfRPE monolayers; JAK inhibitor I 5 μM, 0.5-1 hours prior to IFNγ): significantly blocked

Molecule: Nc1ncnc2c1nc(Br)n2C1OC2COP(O)(=S)OC2C1O (stereo not drawn) [Rp-8-Br-cAMPS]
- reduction in IFNγ-induced absorption rate (rat RPE; PKA inhibitor alone injected into subretinal space, FIG. 23D): ~40%
- effect on IFNγ induced decrease in detachment volume (rat RPE; pre-injection of 50 μM PKA inhibitor alone): partially blocked
- effect on the effects of IFNγ on JV (hfRPE monolayers): completely blocked
- effect on the effects of IFNγ on JV (hfRPE monolayers; listed as Rp-8-Br-cAMPs): blocked
- effect on baseline JV (hfRPE monolayers; Rp-8-Br-cAMPS 2 μM, approximately 40 minutes): no effect
- JV after Rp-8-Br-cAMPS (hfRPE monolayers; six experiments, steady-state baseline 8.9±1.2): 10.4±2.0 μl·cm^−2·hr^−1

Molecule: IFNα
- effect of type I IFN on hfRPE proliferation (hfRPE cells [1]; data not shown): no effect
- side effects reported from topical administration [3]: follicular conjunctivis and conjunctival injection

B1: interferon gamma-1b: biologic response modifier, single chain polypeptide containing 140 amino acids (Actimmune®) (protein, UniProt P01579 24-161, looked up)
Interferon gamma: QDPYVKEAENLKKYFNAGHSDVADNGTLFLGILKNWKEESDRKIMQSQIVSFYFKLFKNFKDDQSIQKSVETIKEDMNVKFFNSNKKKRDDFEKLTNYSVTDLNVQRKAIHELIQVMAELSPAAKTGKRKRSQMLFRG
modifications: interferon gamma-1b
- decrease in (central) macular thickness versus baseline [4]: 25%
